Structures are written as SMILES.

Chain of PKM2 (P52480 whole entry): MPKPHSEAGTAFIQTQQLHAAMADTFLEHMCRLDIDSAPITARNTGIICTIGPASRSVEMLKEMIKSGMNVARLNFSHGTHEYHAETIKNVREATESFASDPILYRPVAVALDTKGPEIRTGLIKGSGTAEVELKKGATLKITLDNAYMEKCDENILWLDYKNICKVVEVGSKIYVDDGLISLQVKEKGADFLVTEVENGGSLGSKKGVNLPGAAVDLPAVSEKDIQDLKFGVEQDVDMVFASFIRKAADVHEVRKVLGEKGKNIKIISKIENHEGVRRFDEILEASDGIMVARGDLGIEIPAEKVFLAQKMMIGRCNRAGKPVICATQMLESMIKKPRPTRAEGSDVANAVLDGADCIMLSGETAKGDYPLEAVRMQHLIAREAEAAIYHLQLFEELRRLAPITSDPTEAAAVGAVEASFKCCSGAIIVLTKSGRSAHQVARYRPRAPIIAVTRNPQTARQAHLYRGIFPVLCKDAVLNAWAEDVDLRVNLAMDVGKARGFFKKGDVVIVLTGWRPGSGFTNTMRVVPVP

In one assay the target is wild type PKM2 (Homo sapiens, UniProt P14618). Briefly: PKM2 Assay (LDH/NADH-coupled, absorbance at 340 nm). In kind it is biochemical. Conditions: wild type PKM2 activation; 60 min preincubation at 25° C.; ADP 0.4 mM, PEP 0.11 mM; read-out: PKM2 WT AC50. How it is done: A compound described herein may be tested for its ability to activate PKM2. For simplicity, the activation activity of these compounds is represented as an AC50 in Table 2. In Tables 2, a compound described herein may have an AC50 of wild type PKM2.
Chain of wild type PKM2 (P14618 whole entry): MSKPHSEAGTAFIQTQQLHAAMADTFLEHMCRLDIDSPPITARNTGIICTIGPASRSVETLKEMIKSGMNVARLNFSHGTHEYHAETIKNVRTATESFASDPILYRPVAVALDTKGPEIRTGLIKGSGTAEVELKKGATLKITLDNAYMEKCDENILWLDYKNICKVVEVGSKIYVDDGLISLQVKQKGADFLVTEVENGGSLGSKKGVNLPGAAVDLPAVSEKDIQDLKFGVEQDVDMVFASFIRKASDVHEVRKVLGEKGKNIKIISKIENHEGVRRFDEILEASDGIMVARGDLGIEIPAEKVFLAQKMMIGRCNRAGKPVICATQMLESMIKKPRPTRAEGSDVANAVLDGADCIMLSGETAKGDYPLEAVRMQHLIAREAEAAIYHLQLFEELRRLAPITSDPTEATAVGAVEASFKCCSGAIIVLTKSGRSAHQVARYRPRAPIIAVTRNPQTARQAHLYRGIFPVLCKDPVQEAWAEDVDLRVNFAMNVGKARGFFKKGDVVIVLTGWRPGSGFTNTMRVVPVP
PKM2 enzyme stock solution was diluted to prepare a 1.11× Reaction Mix (without ADP). 1 μL of test compound was first added to the wells followed by 40 μL of 1.11× Reaction Mix (without ADP) and incubated at room temperature (25° C.) for 60 min. The reaction was initiated with 10 μL ADP (0.4 mM final concentration), bringing the final Reaction Mix to 1×, and the reaction progress was measured as changes in absorbance at 340 nm wavelength at room temperature.
Test compound preparation: Test compounds were prepared at 50× final concentration in DMSO. 1 to 3 dilutions were made for 11 points (for example 50 μL of 5000 μM compound was added to 100 μL 100% DMSO to yield a 1667 μM, 50 μL of this added to 100 μL DMSO to yield 556 μM, and so forth). The compounds were added to the assay as a 1 to 50 dilution (1 μL in 50 μL) to yield a top concentration of 100 μM, decreasing 3-fold for 11 points.
Reaction Mix: PKM2 (5 ng/well, 0.1 μg/ml), ADP (0.4 mM), PEP (0.11 mM), NADH (180 μM), LDH (0.005 U/μL, Sigma #L3888), 1 mM DTT, 0.03% BSA in 1× Reaction Buffer
Reaction Buffer: 100 mM KCl, 50 mM Tris pH 7.5, 5 mM MgCl2.
By AC50 is commonly meant the midpoint of the concentration-response curve, whichever way the signal moves. `Cn1c2nc(Cn3ccnc3)sc2c2cnn(Cc3cccc4[nH]ncc34)c(=O)c21` [Compound 99]: the AC50 was < 300 nM.
The same measure, in the same setting: in the case of `Cn1c2nc(Cc3c[nH]nn3)sc2c2cnn(Cc3cc[nH]n3)c(=O)c21` [Compound 100] it was < 300 nM; in that of `Cn1c2nc(Cc3cccc(N)n3)sc2c2cnn(Cc3cc[nH]n3)c(=O)c21` [Compound 101], < 300 nM; in that of `Cn1c2nc(Cn3cnnc3)sc2c2cnn(Cc3cccc4[nH]ncc34)c(=O)c21` [Compound 102], 301 to 800 nM.
Take `Cn1c2nc(Cc3cc[nH]n3)sc2c2cnn(Cc3[nH]ncc3Cl)c(=O)c21` [Compound 103]: the AC50 is < 300 nM.
Still for that read-out and setting: as for `Cn1c2nc(Cc3c[nH]nn3)sc2c2cnn(Cc3cccc(N)n3)c(=O)c21` [Compound 104], the figure is < 300 nM; as for `Cn1c2nc(Cc3cc[nH]n3)sc2c2cnn(Cc3n[nH]cc3F)c(=O)c21` [Compound 105], < 300 nM.
Still for that read-out and setting: as for `Cn1c2nc(Cn3cnnc3)sc2c2cnn(Cc3cc[nH]n3)c(=O)c21` [Compound 106], the figure is > 800 nM.
Consider `Cn1c2nc(Cc3cc[nH]n3)sc2c2cnn(Cc3nc(N)ccc3F)c(=O)c21` [Compound 107], for which the AC50 was < 300 nM.
Still for that read-out and setting: in the case of `Cn1nncc1Cn1ncc2c3sc(Cc4cc[nH]n4)nc3n(C)c2c1=O` [Compound 108] it was < 300 nM.
For `Cn1ccc(Cn2ncc3c4sc(Cc5cccc(N)n5)nc4n(C)c3c2=O)n1` [Compound 109], the AC50 is < 300 nM.
On the same count and under the same terms, as for `Cn1ccc(Cc2nc3c(s2)c2cnn(Cc4ccn[nH]4)c(=O)c2n3C)n1` [Compound 110], the figure is < 300 nM; as for `Cn1c2nc(Cc3n[nH]cc3F)sc2c2cnn(Cc3cc[nH]n3)c(=O)c21` [Compound 111], < 300 nM.
Same read-out and setting: as for `Cn1c2nc(Cc3ncsc3F)sc2c2cnn(Cc3cc[nH]n3)c(=O)c21` [Compound 112], the figure is < 300 nM; as for `Cn1ccc(Cn2ncc3c4sc(Cc5n[nH]cc5F)nc4n(C)c3c2=O)n1` [Compound 113], < 300 nM; as for `CCOC(c1cscn1)c1nc2c(s1)c1cnn(Cc3c[nH]nn3)c(=O)c1n2C` (stereo not shown) [Compound 114], > 800 nM.
On the same count and under the same terms, in the case of `CC(=O)Nc1ccc(F)c(Cn2ncc3c4sc(Cc5cc[nH]n5)nc4n(C)c3c2=O)n1` [Compound 115] it was < 300 nM.
As to `Cn1cc(C(N)=O)c(Cn2ncc3c4sc(Cc5cc[nH]n5)nc4n(C)c3c2=O)n1` [Compound 116], the AC50 is > 800 nM.
Same read-out and setting: in the case of `Cn1cc(C(=O)O)c(Cn2ncc3c4sc(Cc5cc[nH]n5)nc4n(C)c3c2=O)n1` [Compound 117] it was > 800 nM; in that of `Cn1c2nc(Cc3cc[nH]n3)sc2c2cnn(Cc3ccc(C#N)cn3)c(=O)c21` [Compound 118], 301 to 800 nM.
The same measure, in the same setting: as for `Cn1c2nc(Cc3cc[nH]n3)sc2c2cnn(Cc3ccc(C(N)=O)cn3)c(=O)c21` [Compound 119], the figure is 301 to 800 nM.
Still for that read-out and setting: in the case of `COCc1cn(C)nc1Cn1ncc2c3sc(Cc4cc[nH]n4)nc3n(C)c2c1=O` [Compound 120] it was > 800 nM; in that of `Cn1c2nc(Cc3n[nH]cc3F)sc2c2cnn(Cc3n[nH]cc3OC(F)(F)F)c(=O)c21` [Compound 121], 301 to 800 nM.
Take `Cn1ccc(Cn2ncc3c4sc(C(=O)c5cc[nH]n5)nc4n(C)c3c2=O)n1` [Compound 122]: the AC50 is < 300 nM.
Same read-out and setting: as for `Cn1c2nc(C(=O)c3cc[nH]n3)sc2c2cnn(Cc3cccc(N)n3)c(=O)c21` [Compound 123], the figure is < 300 nM; as for `Cn1cc(CN)c(Cn2ncc3c4sc(Cc5cc[nH]n5)nc4n(C)c3c2=O)n1` [Compound 124], 301 to 800 nM.
Still for that read-out and setting: in the case of `Cn1cc(CC(N)=O)c(Cn2ncc3c4sc(Cc5cc[nH]n5)nc4n(C)c3c2=O)n1` [Compound 125] it was > 800 nM.
With `Cn1c2nc(Cc3cc[nH]n3)sc2c2cnn(CCc3cccc(N)n3)c(=O)c21` [Compound 126], the AC50 is < 300 nM.
On the same count and under the same terms, in the case of `CC(=O)Nc1ccc(F)c(Cn2ncc3c4sc(Cc5cnn(C)c5)nc4n(C)c3c2=O)n1` [Compound 127] it was 301 to 800 nM; in that of `Cn1cc(Cc2nc3c(s2)c2cnn(Cc4cccc(C(N)=O)c4)c(=O)c2n3C)cn1` [Compound 128], < 300 nM.
Same read-out and setting: as for `Cn1c2nc(Cn3ccnc3)sc2c2cnn(Cc3cccc(C(N)=O)c3)c(=O)c21` [Compound 129], the figure is < 300 nM; as for `CC(=O)Nc1ccc(F)c(Cn2ncc3c4sc(Cn5ccnc5)nc4n(C)c3c2=O)n1` [Compound 130], > 800 nM; as for `Cn1c2nc(Cc3cc[nH]n3)sc2c2cnn(Cc3n[nH]c(=O)[nH]3)c(=O)c21` [Compound 131], 301 to 800 nM.
Same read-out and setting: as for `Cn1c2nc(Cc3cc[nH]n3)sc2c2cnn(Cc3coc(C(N)=O)n3)c(=O)c21` [Compound 132], the figure is < 300 nM; as for `C=CCn1ncc2c3sc(Cc4ccccn4)nc3n(C)c2c1=O` [Compound 133], > 800 nM.
On to `Cn1c2nc(Cc3cc[nH]n3)sc2c2cnn(Cc3ccnc(N)n3)c(=O)c21` [Compound 134], for which the AC50 was < 300 nM.
Same read-out and setting: in the case of `Cn1c2nc(Cc3cc[nH]n3)sc2c2cnn(Cc3nccc(N)n3)c(=O)c21` [Compound 135] it was < 300 nM; in that of `Cn1c2nc(Cc3cc[nH]n3)sc2c2cnn(CCc3cccnc3)c(=O)c21` [Compound 136], 301 to 800 nM.
With `Cn1ccc(CCn2ncc3c4sc(Cc5cccnc5)nc4n(C)c3c2=O)n1` [Compound 137], the AC50 lay within 301 to 800 nM.
The same measure, in the same setting: in the case of `CCn1c2nc(Cc3cc[nH]n3)sc2c2cnn(Cc3ccccc3)c(=O)c21` [Compound 138] it was > 800 nM.
The same measure, in the same setting: as for `Cn1c2nc(Cc3ccccn3)sc2c2cnn(CC3CCOCC3)c(=O)c21` [Compound 139], the figure is > 800 nM; as for `O=c1c2c(cnn1Cc1ccccc1)c1sc(Cc3ccccn3)nc1n2-c1ccccc1` [Compound 140], > 800 nM.
For `Cn1ccc(Cn2ncc3c4sc(CCc5cccnc5)nc4n(C)c3c2=O)n1` [Compound 141], the AC50 is > 800 nM.
Same read-out and setting: as for `O=c1c2c(cnn1Cc1ccccc1)c1sc(Cc3cc[nH]n3)nc1n2Cc1ccccc1` [Compound 142], the figure is > 800 nM; as for `Cn1c2nc(Cn3cncn3)sc2c2cnn(Cc3ccnc(N)n3)c(=O)c21` [Compound 143], > 800 nM.
`Cn1c2nc(Cn3ccnc3)sc2c2cnn(Cc3ccnc(N)n3)c(=O)c21` [Compound 144]: the AC50 is > 800 nM.
Still for that read-out and setting: in the case of `Cn1c2nc(Cn3cncn3)sc2c2cnn(Cc3n[nH]c(=O)[nH]3)c(=O)c21` [Compound 145] it was > 800 nM.

Another assay concerns the target PKM2 (Mus musculus, UniProt P52480).
Experiment: not given
The following applies: in vivo, LPS; cited from earlier work.
On to `Cn1c2cc([S+](C)[O-])sc2c2cnn(Cc3cccc(N)c3)c(=O)c21` (stereo not shown) [TEPP-46], for which the IL-1β production result is “inhibited LPS and IL-1β production”; the “production of IL-10” value is “boosting production of IL-10”.

(Values after patent publication US11872225B2, “Pyruvate kinase modulators and use thereof” (Agios Pharmaceuticals, Inc., priority 2017, dated 2024).)
